Key:
Tyk2 = Tyk2 (Homo sapiens (Human), UniProt P29597); assay: Biochemical Tyk2 kinase assay (LanthaScreen)
How it was run: (§1)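 GST-JAK + GFP-STAT1 peptide, HEPES pH 7.5/MgCl2/EGTA/Brij-35 buffer; cpd preincubation 1 h RT; ATP start, 1 h RT; stop with 10 mM EDTA + 2 nM Tb-anti-pSTAT1; TR-FRET 520/495. 4-parameter IC50 → pKi (Cheng-Prusoff).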

Caco-2 cell monolayers = assay: Caco-2 permeation assay; assay type: in vitro ADME; details: 5 μM, A-B direction, with Verapamil (25 μM)
How it was run: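 Passive A-to-B permeability with P-gp inhibited by verapamil (25 μM); compound at 5 μM, n=2. Both compartments sampled at t0 and t120 and quantified by LC-MS/MS, giving apparent permeability in cm/sec from flux, area and concentration.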

JAK1 = JAK1 (Homo sapiens (Human), UniProt P23458); assay: Biochemical JAK1 kinase assay (LanthaScreen)
Sequence of JAK1 (P23458 whole entry): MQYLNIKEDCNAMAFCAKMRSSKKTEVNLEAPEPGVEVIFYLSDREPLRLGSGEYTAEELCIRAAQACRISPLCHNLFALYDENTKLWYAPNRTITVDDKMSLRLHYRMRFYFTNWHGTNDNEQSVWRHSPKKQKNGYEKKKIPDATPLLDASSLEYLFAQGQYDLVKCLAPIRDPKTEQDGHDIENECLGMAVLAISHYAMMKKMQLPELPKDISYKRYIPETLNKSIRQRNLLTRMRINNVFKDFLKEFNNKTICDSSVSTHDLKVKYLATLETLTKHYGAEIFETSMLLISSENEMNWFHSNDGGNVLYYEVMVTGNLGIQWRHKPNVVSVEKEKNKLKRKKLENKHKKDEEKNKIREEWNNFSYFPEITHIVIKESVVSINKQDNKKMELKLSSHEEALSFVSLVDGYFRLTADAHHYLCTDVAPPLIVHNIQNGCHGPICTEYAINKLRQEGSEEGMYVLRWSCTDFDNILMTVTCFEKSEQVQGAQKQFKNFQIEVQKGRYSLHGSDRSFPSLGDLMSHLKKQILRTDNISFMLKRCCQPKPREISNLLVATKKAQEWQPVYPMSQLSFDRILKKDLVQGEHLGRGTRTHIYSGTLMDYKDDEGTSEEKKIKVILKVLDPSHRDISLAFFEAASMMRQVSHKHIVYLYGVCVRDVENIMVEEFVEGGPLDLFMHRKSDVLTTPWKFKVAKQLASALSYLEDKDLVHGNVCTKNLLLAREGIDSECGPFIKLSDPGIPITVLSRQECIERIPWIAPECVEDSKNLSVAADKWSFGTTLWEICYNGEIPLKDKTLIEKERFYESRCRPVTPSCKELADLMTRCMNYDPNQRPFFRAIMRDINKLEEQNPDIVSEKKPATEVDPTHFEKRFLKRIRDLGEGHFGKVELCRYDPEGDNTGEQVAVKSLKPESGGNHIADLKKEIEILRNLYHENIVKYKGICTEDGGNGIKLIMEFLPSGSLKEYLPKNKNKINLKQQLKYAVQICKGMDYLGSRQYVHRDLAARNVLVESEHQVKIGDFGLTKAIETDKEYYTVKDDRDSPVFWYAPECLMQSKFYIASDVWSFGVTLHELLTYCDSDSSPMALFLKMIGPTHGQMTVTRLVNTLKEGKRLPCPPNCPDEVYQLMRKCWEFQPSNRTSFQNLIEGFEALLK
How it was run: as §1

JAK2 = JAK2 (Homo sapiens (Human), UniProt O60674); assay: Biochemical JAK2 kinase assay (LanthaScreen)
Sequence of JAK2 (O60674 whole entry): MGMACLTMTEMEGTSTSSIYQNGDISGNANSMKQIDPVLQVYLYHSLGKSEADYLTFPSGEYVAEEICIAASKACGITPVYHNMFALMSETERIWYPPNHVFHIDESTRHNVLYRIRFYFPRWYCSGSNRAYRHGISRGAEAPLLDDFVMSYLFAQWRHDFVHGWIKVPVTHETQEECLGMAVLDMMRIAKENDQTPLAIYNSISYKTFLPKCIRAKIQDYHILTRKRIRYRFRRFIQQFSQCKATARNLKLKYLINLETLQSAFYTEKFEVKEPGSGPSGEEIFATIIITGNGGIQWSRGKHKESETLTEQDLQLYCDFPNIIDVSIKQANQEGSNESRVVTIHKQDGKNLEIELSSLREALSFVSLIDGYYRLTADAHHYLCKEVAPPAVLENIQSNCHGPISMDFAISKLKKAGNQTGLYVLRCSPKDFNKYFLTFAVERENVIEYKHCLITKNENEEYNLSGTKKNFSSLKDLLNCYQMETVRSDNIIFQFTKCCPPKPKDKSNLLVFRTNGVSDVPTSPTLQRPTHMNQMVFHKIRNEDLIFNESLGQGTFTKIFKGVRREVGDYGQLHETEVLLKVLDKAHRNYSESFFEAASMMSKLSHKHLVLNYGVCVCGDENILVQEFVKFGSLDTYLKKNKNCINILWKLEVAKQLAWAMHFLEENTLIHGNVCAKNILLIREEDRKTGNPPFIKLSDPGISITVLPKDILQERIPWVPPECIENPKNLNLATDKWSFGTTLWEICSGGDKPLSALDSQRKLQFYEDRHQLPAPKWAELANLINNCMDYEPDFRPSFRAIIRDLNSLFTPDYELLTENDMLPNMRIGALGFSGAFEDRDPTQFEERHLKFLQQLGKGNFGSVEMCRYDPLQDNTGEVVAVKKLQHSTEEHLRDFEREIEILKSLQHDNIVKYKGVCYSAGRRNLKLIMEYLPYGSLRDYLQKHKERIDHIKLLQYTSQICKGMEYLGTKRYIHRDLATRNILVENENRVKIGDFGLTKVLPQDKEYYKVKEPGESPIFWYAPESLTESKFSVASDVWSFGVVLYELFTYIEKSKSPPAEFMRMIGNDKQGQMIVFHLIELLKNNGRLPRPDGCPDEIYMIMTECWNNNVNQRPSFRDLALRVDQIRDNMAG
How it was run: as §1

JAK3 = JAK3 (Homo sapiens (Human), UniProt P52333); assay: Biochemical JAK3 kinase assay (LanthaScreen); details: for JAK3 (pKi)-JAK1 (pKi): selectivity JAK3 over JAK1, difference of pKi
Sequence of JAK3 (P52333 whole entry): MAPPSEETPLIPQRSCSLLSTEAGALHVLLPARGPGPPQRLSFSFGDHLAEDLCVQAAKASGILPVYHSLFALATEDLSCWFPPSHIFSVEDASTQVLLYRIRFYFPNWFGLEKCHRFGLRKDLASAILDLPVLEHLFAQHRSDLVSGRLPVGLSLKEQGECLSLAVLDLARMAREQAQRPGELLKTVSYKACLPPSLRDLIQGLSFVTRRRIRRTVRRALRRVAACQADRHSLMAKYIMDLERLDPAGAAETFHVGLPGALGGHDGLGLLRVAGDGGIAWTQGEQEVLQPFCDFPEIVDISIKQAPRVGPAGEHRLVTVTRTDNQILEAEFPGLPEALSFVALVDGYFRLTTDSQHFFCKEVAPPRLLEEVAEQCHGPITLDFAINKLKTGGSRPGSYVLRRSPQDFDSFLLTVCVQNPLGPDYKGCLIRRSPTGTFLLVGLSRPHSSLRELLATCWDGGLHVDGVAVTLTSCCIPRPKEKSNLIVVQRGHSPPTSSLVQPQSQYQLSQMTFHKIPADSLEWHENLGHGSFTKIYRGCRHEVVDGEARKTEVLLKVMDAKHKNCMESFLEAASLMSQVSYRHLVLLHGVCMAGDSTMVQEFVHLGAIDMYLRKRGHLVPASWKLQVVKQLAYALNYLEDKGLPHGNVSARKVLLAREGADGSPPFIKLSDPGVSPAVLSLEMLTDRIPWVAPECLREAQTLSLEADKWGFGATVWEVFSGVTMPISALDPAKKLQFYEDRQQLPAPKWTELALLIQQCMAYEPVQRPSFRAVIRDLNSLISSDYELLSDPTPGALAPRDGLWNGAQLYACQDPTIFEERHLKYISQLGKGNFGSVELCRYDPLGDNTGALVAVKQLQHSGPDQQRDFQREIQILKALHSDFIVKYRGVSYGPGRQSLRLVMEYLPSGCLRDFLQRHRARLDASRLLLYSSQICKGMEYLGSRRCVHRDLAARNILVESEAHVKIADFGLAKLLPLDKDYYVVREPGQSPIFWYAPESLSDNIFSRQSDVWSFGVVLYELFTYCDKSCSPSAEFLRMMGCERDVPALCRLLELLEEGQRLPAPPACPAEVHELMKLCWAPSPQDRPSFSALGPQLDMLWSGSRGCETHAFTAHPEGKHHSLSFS
How it was run: as §1

[1] = tested on: IL-2 stimulated STAT5 phosphorylation in Tall-1 human T cell line (JAK3); assay: Cellular JAK3 potency assay: inhibition of IL-2 stimulated pSTAT5 in Tall-1 T cells; assay type: cell-based; details: IL-2 stimulated pSTAT5, Tall-1 T cells
How it was run: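 AlphaLISA SureFire Ultra measures STAT5 Tyr694/699 phosphorylation in lysed Tall-1 human T cells. Cells were exposed to compound for 1 h at 37 °C before a 30 min IL-2 challenge (300 ng/ml final). Values are pIC50 means with standard deviation from signal-versus-concentration curves.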

Sequence of Tyk2 (P29597 whole entry): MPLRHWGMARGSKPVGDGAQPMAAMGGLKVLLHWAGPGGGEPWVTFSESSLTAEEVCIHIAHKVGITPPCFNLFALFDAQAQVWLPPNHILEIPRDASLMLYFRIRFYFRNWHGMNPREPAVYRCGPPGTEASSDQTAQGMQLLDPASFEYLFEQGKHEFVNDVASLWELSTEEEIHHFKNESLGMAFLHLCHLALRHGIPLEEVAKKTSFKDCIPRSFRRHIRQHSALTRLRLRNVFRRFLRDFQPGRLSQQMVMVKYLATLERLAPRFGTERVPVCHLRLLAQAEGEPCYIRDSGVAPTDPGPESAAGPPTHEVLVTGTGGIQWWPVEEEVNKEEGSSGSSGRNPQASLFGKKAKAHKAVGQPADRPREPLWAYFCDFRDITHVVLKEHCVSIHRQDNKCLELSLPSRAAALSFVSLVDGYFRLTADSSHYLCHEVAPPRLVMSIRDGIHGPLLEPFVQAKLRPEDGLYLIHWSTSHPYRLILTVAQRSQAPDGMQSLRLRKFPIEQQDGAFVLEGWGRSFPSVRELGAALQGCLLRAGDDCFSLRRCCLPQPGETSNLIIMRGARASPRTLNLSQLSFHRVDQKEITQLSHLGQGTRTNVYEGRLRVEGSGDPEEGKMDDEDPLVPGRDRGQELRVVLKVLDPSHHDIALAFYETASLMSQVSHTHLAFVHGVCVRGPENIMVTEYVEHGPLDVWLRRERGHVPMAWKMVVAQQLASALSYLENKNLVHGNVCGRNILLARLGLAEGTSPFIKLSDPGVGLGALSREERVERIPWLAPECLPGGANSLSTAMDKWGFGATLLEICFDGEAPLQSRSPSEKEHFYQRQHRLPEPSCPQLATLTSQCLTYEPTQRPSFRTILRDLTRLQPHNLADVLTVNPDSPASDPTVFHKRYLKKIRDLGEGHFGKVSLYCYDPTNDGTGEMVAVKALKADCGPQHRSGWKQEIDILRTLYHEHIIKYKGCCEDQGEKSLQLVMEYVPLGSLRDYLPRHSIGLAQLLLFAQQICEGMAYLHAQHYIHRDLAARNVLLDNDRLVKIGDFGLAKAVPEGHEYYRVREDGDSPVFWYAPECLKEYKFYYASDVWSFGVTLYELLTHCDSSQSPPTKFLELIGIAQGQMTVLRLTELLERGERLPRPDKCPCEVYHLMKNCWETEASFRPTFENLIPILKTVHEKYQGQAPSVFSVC

| SMILES | Tyk 2 (pKi) (Tyk2) | Caco Kp (Caco-2 cell monolayers) | JAK 1 (pKi) (JAK1) | JAK 2 (pKi) (JAK2) | JAK 3 (pKi) (JAK3) | JAK3 (pKi)-JAK1 (pKi) (JAK3) | Tall-1 (pIC50) [1] |
| --- | --- | --- | --- | --- | --- | --- | --- |
| C=CC(=O)N1CC(CCn2c(=O)ccc3cnc(Nc4ccc(N5CCN(S(=O)(=O)CC#N)CC5)cc4)nc32)C1 [Example 101] | E (E represents a pKi value of 7 or below (Ki of 100 nM or above)) | A (A represents a value below 5×10^−6 cm/sec) | E (E represents a pKi value of 7 or below (Ki of 100 nM or above)) | E (E represents a pKi value of 7 or below (Ki of 100 nM or above)) | A (A represents a pKi value≥10 (Ki≤0.1 nM)) | A (A represents a value of 3 or above) | B (B represents a pC50 value between 6.7 (included) and 7.5 (IC50 between 200 nM and 32 nM)) |
| C=CC(=O)N1CC(CCn2c(=O)ccc3cnc(Nc4ccc(N5CCN(C)CC5)cc4F)nc32)C1 [Example 141] | E (E represents a pKi value of 7 or below (Ki of 100 nM or above)) | C (C represents a value between 10×10^−6 and 30×10^−6 cm/sec) | E (E represents a pKi value of 7 or below (Ki of 100 nM or above)) | E (E represents a pKi value of 7 or below (Ki of 100 nM or above)) | B (B represents pKi value between 9 and 10 (Ki between 1 nM and 0.1 nM)) | A (A represents a value of 3 or above) | B (B represents a pC50 value between 6.7 (included) and 7.5 (IC50 between 200 nM and 32 nM)) |
| C=CC(=O)N1CC(CCn2c(=O)ccc3cnc(Nc4ccc(-n5cccn5)cc4)nc32)C1 [Example 66] | E (E represents a pKi value of 7 or below (Ki of 100 nM or above)) | C (C represents a value between 10×10^−6 and 30×10^−6 cm/sec) | E (E represents a pKi value of 7 or below (Ki of 100 nM or above)) | E (E represents a pKi value of 7 or below (Ki of 100 nM or above)) | B (B represents pKi value between 9 and 10 (Ki between 1 nM and 0.1 nM)) | A (A represents a value of 3 or above) | B (B represents a pC50 value between 6.7 (included) and 7.5 (IC50 between 200 nM and 32 nM)) |
| C=CC(=O)N1CCN(CCn2c(=O)ccc3cnc(Nc4cnn(C5CCOCC5)c4)nc32)[C@@H](CC)C1 [Example 197] | E (E represents a pKi value of 7 or below (Ki of 100 nM or above)) | A (A represents a value below 5×10^−6 cm/sec) | E (E represents a pKi value of 7 or below (Ki of 100 nM or above)) | E (E represents a pKi value of 7 or below (Ki of 100 nM or above)) | B (B represents pKi value between 9 and 10 (Ki between 1 nM and 0.1 nM)) | A (A represents a value of 3 or above) | B (B represents a pC50 value between 6.7 (included) and 7.5 (IC50 between 200 nM and 32 nM)) |
| C=CC(=O)N1CC(CCn2c(=O)ccc3cnc(Nc4ccc(N5CCCCC5)cc4)nc32)C1 [Example 143] | E (E represents a pKi value of 7 or below (Ki of 100 nM or above)) | C (C represents a value between 10×10^−6 and 30×10^−6 cm/sec) | E (E represents a pKi value of 7 or below (Ki of 100 nM or above)) | E (E represents a pKi value of 7 or below (Ki of 100 nM or above)) | A (A represents a pKi value≥10 (Ki≤0.1 nM)) | A (A represents a value of 3 or above) | B (B represents a pC50 value between 6.7 (included) and 7.5 (IC50 between 200 nM and 32 nM)) |
| C=CC(=O)N1CCN(CCn2c(=O)ccc3cnc(Nc4ccc(N5CCN(C(=O)C[S+]([O-])CC)CC5)cc4)nc32)[C@@H](CC)C1 (stereo partly shown) [Example 198] | E (E represents a pKi value of 7 or below (Ki of 100 nM or above)) | A (A represents a value below 5×10^−6 cm/sec) | E (E represents a pKi value of 7 or below (Ki of 100 nM or above)) | E (E represents a pKi value of 7 or below (Ki of 100 nM or above)) | B (B represents pKi value between 9 and 10 (Ki between 1 nM and 0.1 nM)) | A (A represents a value of 3 or above) | C (C represents a pIC50 value between 6 and 6.7 (IC50 between 1 μM and 200 nM)) |
| C=CC(=O)N1CC(CCn2c(=O)ccc3cnc(Nc4ccc5[nH]ncc5c4)nc32)C1 [Example 82] | E (E represents a pKi value of 7 or below (Ki of 100 nM or above)) | A (A represents a value below 5×10^−6 cm/sec) | E (E represents a pKi value of 7 or below (Ki of 100 nM or above)) | E (E represents a pKi value of 7 or below (Ki of 100 nM or above)) | B (B represents pKi value between 9 and 10 (Ki between 1 nM and 0.1 nM)) | A (A represents a value of 3 or above) | C (C represents a pIC50 value between 6 and 6.7 (IC50 between 1 μM and 200 nM)) |
| C=CC(=O)N1CC(CCn2c(=O)ccc3cnc(Nc4ccc(N5CCN(S(C)(=O)=O)CC5)cc4)nc32)C1 [Example 94] | E (E represents a pKi value of 7 or below (Ki of 100 nM or above)) | A (A represents a value below 5×10^−6 cm/sec) | E (E represents a pKi value of 7 or below (Ki of 100 nM or above)) | E (E represents a pKi value of 7 or below (Ki of 100 nM or above)) | A (A represents a pKi value≥10 (Ki≤0.1 nM)) | A (A represents a value of 3 or above) | A (A represents a pIC50 value≥7.5 (IC50≤32 nM)) |
| C=CC(=O)N1CCN(CCn2c(=O)ccc3cnc(Nc4cnn(C)c4)nc32)CC12CC2 [Example 32] | E (E represents a pKi value of 7 or below (Ki of 100 nM or above)) | B (B represents a value between 5×10^−6 and 10×10^−6 cm/sec) | E (E represents a pKi value of 7 or below (Ki of 100 nM or above)) | E (E represents a pKi value of 7 or below (Ki of 100 nM or above)) | B (B represents pKi value between 9 and 10 (Ki between 1 nM and 0.1 nM)) | A (A represents a value of 3 or above) | B (B represents a pC50 value between 6.7 (included) and 7.5 (IC50 between 200 nM and 32 nM)) |
| C=CC(=O)N1CCN(CCn2c(=O)ccc3cnc(Nc4ccc(N5CCN(CCCOC)CC5)cc4)nc32)CC1 [Example 207] | E (E represents a pKi value of 7 or below (Ki of 100 nM or above)) | B (B represents a value between 5×10^−6 and 10×10^−6 cm/sec) | E (E represents a pKi value of 7 or below (Ki of 100 nM or above)) | E (E represents a pKi value of 7 or below (Ki of 100 nM or above)) | B (B represents pKi value between 9 and 10 (Ki between 1 nM and 0.1 nM)) | A (A represents a value of 3 or above) | B (B represents a pC50 value between 6.7 (included) and 7.5 (IC50 between 200 nM and 32 nM)) |
| C=CC(=O)N1CC(CCn2c(=O)ccc3cnc(Nc4ccc(N5CCN(C(=O)CC#N)CC5)cc4)nc32)C1 [Example 72] | E (E represents a pKi value of 7 or below (Ki of 100 nM or above)) | A (A represents a value below 5×10^−6 cm/sec) | E (E represents a pKi value of 7 or below (Ki of 100 nM or above)) | E (E represents a pKi value of 7 or below (Ki of 100 nM or above)) | B (B represents pKi value between 9 and 10 (Ki between 1 nM and 0.1 nM)) | A (A represents a value of 3 or above) | B (B represents a pC50 value between 6.7 (included) and 7.5 (IC50 between 200 nM and 32 nM)) |
| C=CC(=O)N1CC(CCn2c(=O)ccc3cnc(Nc4ccc(N5CCN(C(C)=O)[C@@H](C)C5)cc4)nc32)C1 [Example 167] | E (E represents a pKi value of 7 or below (Ki of 100 nM or above)) | A (A represents a value below 5×10^−6 cm/sec) | E (E represents a pKi value of 7 or below (Ki of 100 nM or above)) | E (E represents a pKi value of 7 or below (Ki of 100 nM or above)) | A (A represents a pKi value≥10 (Ki≤0.1 nM)) | A (A represents a value of 3 or above) | B (B represents a pC50 value between 6.7 (included) and 7.5 (IC50 between 200 nM and 32 nM)) |
| C=CC(=O)N1CC(CCn2c(=O)ccc3cnc(Nc4cccc(N5CCN(C(C)=O)CC5)c4)nc32)C1 [Example 78] | E (E represents a pKi value of 7 or below (Ki of 100 nM or above)) | A (A represents a value below 5×10^−6 cm/sec) | E (E represents a pKi value of 7 or below (Ki of 100 nM or above)) | E (E represents a pKi value of 7 or below (Ki of 100 nM or above)) | B (B represents pKi value between 9 and 10 (Ki between 1 nM and 0.1 nM)) | A (A represents a value of 3 or above) | B (B represents a pC50 value between 6.7 (included) and 7.5 (IC50 between 200 nM and 32 nM)) |

From patent US11697648B2, “Fused pyrimidine pyridinone compounds as JAK inhibitors” (THERAVANCE BIOPHARMA R&D IP, LLC, priority 2019, dated 2023)
